Experimental data from ChEMBL document CHEMBL3885881, “DrugMatrix”.

Species: Rattus norvegicus
Experiment: DrugMatrix - Regimen: Daily Repeat
Assay type: toxicity, organism-based, Sprague-Dawley
Set-up: regimen Daily Repeat, gender Male, age 6-8 weeks
Settings: in vivo, po, route oral GAVAGE, […]; for ABSOLUTE BASOPHIL / BASOPHIL / EOSINOPHIL / NUCLEATED RED BLOOD CELLS / MONOCYTE / ABSOLUTE EOSINOPHIL / ABSOLUTE LYMPHOCYTE / ABSOLUTE MONOCYTE / ABSOLUTE SEGMENTED NEUTROPHIL / ERYTHROCYTE COUNT / HEMATOCRIT / HEMOGLOBIN / LEUKOCYTE COUNT / LYMPHOCYTE / MEAN CORPUSCULAR HEMOGLOBIN / MEAN CORPUSCULAR HEMOGLOBIN CONCENTRATION / MEAN CORPUSCULAR VOLUME / NEUTROPHIL / PLATELET COUNT: tissue Blood; for TOTAL BILIRUBIN / URIC ACID / ALANINE AMINOTRANSFERASE / ALBUMIN / ALKALINE PHOSPHATASE / ASPARTATE AMINOTRANSFERASE / BLOOD UREA NITROGEN / CARBON DIOXIDE / CHLORIDE / CHOLESTEROL / CREATINE PHOSPHOKINASE / CREATININE / GLUCOSE / LACTATE DEHYDROGENASE / LIPASE / PHOSPHORUS / POTASSIUM / SODIUM / TOTAL PROTEIN: tissue Plasma
[1] = 0 mg/kg, 72 h, dose level Control, time 3 day
[2] = 0 mg/kg, 120 h, dose level Control, time 5 day
[3] = 10 mg/kg, 72 h, dose level M1, time 3 day
[4] = 10 mg/kg, 120 h, dose level M1, time 5 day

O=C(c1ccc(OCCN2CCCCC2)cc1)c1c(-c2ccc(O)cc2)sc2cc(O)ccc12 [RALOXIFENE]
ABSOLUTE BASOPHIL [1]: 0 CELLS/uL | BASOPHIL [1]: 0% | EOSINOPHIL [1]: 0.17% | NUCLEATED RED BLOOD CELLS [1]: 0 /100WBC | ABSOLUTE BASOPHIL [2]: 0 CELLS/uL | BASOPHIL [2]: 0% | MONOCYTE [2]: 1.17% | TOTAL BILIRUBIN [2]: 0.1 mg/dL | URIC ACID [2]: 0.52 mg/dL | ABSOLUTE BASOPHIL [3]: 0 CELLS/uL | ABSOLUTE EOSINOPHIL [3]: 29.33 CELLS/uL | ABSOLUTE LYMPHOCYTE [3]: 7440 CELLS/uL | ABSOLUTE MONOCYTE [3]: 116 CELLS/uL | ABSOLUTE SEGMENTED NEUTROPHIL [3]: 681.33 CELLS/uL | BASOPHIL [3]: 0% | EOSINOPHIL [3]: 0.33% | ERYTHROCYTE COUNT [3]: 5.44 x10E6/uL | HEMATOCRIT [3]: 34.47% | HEMOGLOBIN [3]: 13.3 G/DL | LEUKOCYTE COUNT [3]: 8.27 x10E3/uL | LYMPHOCYTE [3]: 90.33% | MEAN CORPUSCULAR HEMOGLOBIN [3]: 24.53 pg | MEAN CORPUSCULAR HEMOGLOBIN CONCENTRATION [3]: 38.6 G/DL | MEAN CORPUSCULAR VOLUME [3]: 63.53 fL | MONOCYTE [3]: 1.33% | NEUTROPHIL [3]: 8% | NUCLEATED RED BLOOD CELLS [3]: 0.33 /100WBC | PLATELET COUNT [3]: 1223 x10E3/uL | ALANINE AMINOTRANSFERASE [3]: 53.67 u/L | ALBUMIN [3]: 4.43 G/DL | ALKALINE PHOSPHATASE [3]: 398.33 u/L | ASPARTATE AMINOTRANSFERASE [3]: 90.67 u/L | BLOOD UREA NITROGEN [3]: 10 mg/dL | CARBON DIOXIDE [3]: 31.67 mmol/L | CHLORIDE [3]: 101.67 MEQ/L | CHOLESTEROL [3]: 52.67 mg/dL | CREATINE PHOSPHOKINASE [3]: 300.33 u/L | CREATININE [3]: 0.24 mg/dL | GLUCOSE [3]: 151.33 mg/dL | LACTATE DEHYDROGENASE [3]: 123 u/L | LIPASE [3]: 9.33 u/L | PHOSPHORUS [3]: 10.93 mg/dL | POTASSIUM [3]: 5.67 MEQ/L | SODIUM [3]: 147.7 MEQ/L | TOTAL BILIRUBIN [3]: 0.13 mg/dL | TOTAL PROTEIN [3]: 6.5 G/DL | URIC ACID [3]: 0.87 mg/dL | ABSOLUTE BASOPHIL [4]: 0 CELLS/uL | ABSOLUTE EOSINOPHIL [4]: 34 CELLS/uL | ABSOLUTE LYMPHOCYTE [4]: 8594.67 CELLS/uL | ABSOLUTE MONOCYTE [4]: 97 CELLS/uL | ABSOLUTE SEGMENTED NEUTROPHIL [4]: 974.33 CELLS/uL | BASOPHIL [4]: 0% | EOSINOPHIL [4]: 0.33% | ERYTHROCYTE COUNT [4]: 5.62 x10E6/uL | HEMATOCRIT [4]: 34.3% | HEMOGLOBIN [4]: 13.33 G/DL | LEUKOCYTE COUNT [4]: 9.7 x10E3/uL | LYMPHOCYTE [4]: 89% | MEAN CORPUSCULAR HEMOGLOBIN [4]: 23.8 pg | MEAN CORPUSCULAR HEMOGLOBIN CONCENTRATION [4]: 38.93 G/DL | MEAN CORPUSCULAR VOLUME [4]: 61.13 fL | MONOCYTE [4]: 1% | NEUTROPHIL [4]: 9.67% | NUCLEATED RED BLOOD CELLS [4]: 0 /100WBC | PLATELET COUNT [4]: 1211.33 x10E3/uL | ALANINE AMINOTRANSFERASE [4]: 42.33 u/L | ALBUMIN [4]: 4.5 G/DL | ALKALINE PHOSPHATASE [4]: 301.33 u/L | ASPARTATE AMINOTRANSFERASE [4]: 77.67 u/L | BLOOD UREA NITROGEN [4]: 9 mg/dL | CARBON DIOXIDE [4]: 28.67 mmol/L | CHLORIDE [4]: 102 MEQ/L | CHOLESTEROL [4]: 50 mg/dL | CREATINE PHOSPHOKINASE [4]: 198.67 u/L | CREATININE [4]: 0.33 mg/dL | GLUCOSE [4]: 168.33 mg/dL | LACTATE DEHYDROGENASE [4]: 130.67 u/L | LIPASE [4]: 8.33 u/L | PHOSPHORUS [4]: 12.1 mg/dL | POTASSIUM [4]: 4.86 MEQ/L | SODIUM [4]: 146.9 MEQ/L | TOTAL BILIRUBIN [4]: 0.1 mg/dL | TOTAL PROTEIN [4]: 6.33 G/DL
